Measured values taken from patent US20210340178A1, “NONAPEPTIDE PREVENTING INCREASED HYPERPERMEABILITY OF VASCULAR ENDOTHELIUM” (FEDERALNOYE GOSUDARSTVENNOE BUDGETNOE UCHREZHDENIE …, priority 2018, published 2021).
“Also recorded” adds a separate entry of the source. Where two headings read alike, the source gives them in different places. Values belong to the compound of their own block, whether it stands above or below them. Non-standard residues stand in square brackets, D forms with d. Residues, ends and D or L forms follow the SMILES beside them. NMeR = CN[C@@H](CCCNC(=N)N)C(=O)O

Legend:
[1] = cited from earlier work
[2] = rabbit, in vivo, iv
Protocol: (§3) PIK2 dose of 5 mg/kg was calculated individually for each rabbit and administered into marginal ear vein in a final volume of 1.7-1.9 mL in sterile physiological saline. Stock concentration of the tested substance was 10 mg/mL.
(§4) During the 24-hrs testing period, the overall health status and behavior were monitored (appetite, motion activity, hair coat condition).
(§5) Before injection of test substances (baseline) and 4 hrs and 24 hrs after the injection, the following parameters were tested in whole venous blood samples (3.0-3.5 mL) collected from a marginal ear vein red blood cell (RBC) count, hematocrit, hemoglobin level, mean RBC volume, mean corpuscular hemoglobin, total leukocyte, lymphocyte, and granulocyte counts and their percentages, platelet count, and mean platelet volume. In parallel, the following biochemical parameters were measured in serum total protein, bilirubin, urea, creatinine, glucose, total cholesterol, triglycerides, and activities of alkaline phosphatase, lactate dehydrogenase, aspartate aminotransferase, and alanine aminotransferase. Blood cell count was performed using an Abacus junior vet (Austria) hematological cell counter; biochemical studies were performed using a Targa-2000 (Italy) instrument.

[3] = tested on: EA.hy926 endothelial cell monolayer; experiment: Thrombin-mediated FITC-dextran permeability through endothelial cell monolayer; format: cell-based; conditions: peptide 100 μM, 60 min preincubation; thrombin 100 nM; 70 kDa FITC-dextran
Protocol: FIG. 3. The thrombin-mediated FITC-dextran permeability through the EA.hy926 endothelial cell monolayer in the presence of myosin light chain kinase peptide inhibitors. Thrombin (100 nM) was added at 0 min, the cells were preincubated for 60 min with MLCK peptide inhibitors (100 μM). Data are presented as mean±SD, n=5. p<0.05 for all data points within the 20-180 min time course range as compared to the thrombin-stimulated control.
Effects of the claimed peptide (PIK7), the prototype (PIK2), and the analogue (MLC11-19) on the endothelial permeability was assayed in a model of FITC-dextran diffusion through the endothelial monolayer as described in Example 3.
Cells were grown in 24-well plates (Greiner Bio-one, Austria) equipped with special inserts to form inner (upper) chambers with a porous bottom (the pore diameter of 0.4 μm, pore density of 10^8/cm^2) in DMEM until monolayer was formed (3-4 days). Successful monolayer was checked by measuring FITC-dextran diffusion for 1 hour through inserts with cell monolayers vs inserts without cells (‘blank’ inserts). Experiments were performed in triplicates when tight monolayers were formed. On the day of experiment, the cells were deprived for 1 h in DMEM supplemented with MLCK inhibitors or without inhibitors (control). After deprivation, FITC-dextran was added to the upper compartment to a final concentration of 0.05 mg/ml. In 30 and 60 min, a 10-μ1 aliquot was withdrawn from the lower compartment and mixed with 100 μl phosphate buffered saline pH 7.3 in a 96-well plate to estimate the endothelial monolayer baseline permeability. […] During the next 3 hrs, every 30 min, aliquots were taken from the lower compartment, and intensity of FITC fluorescence was measured using a Victor 3X plate reader (Perkin Elmer, USA) to plot the dynamics of the FITC fluorescence changes.
As shown, 100 nM thrombin induces the endothelial hyperpermeability response as reflected by an increase in 70 kDa FITC-dextran diffusion through the endothelial monolayer and an incremental increase in the fluorescence in the lower compartment of the diffusion chamber. […]

Chinchilla rabbits = experiment: Tolerance of a single intravenous injection in Chinchilla rabbits; conditions: i.v. 5 mg/kg
Protocol: as §3, §4, §5

[4] = tested on: endothelial hyperpermeability; conditions: cited from earlier work
in vivo = conditions: male, Chinchilla, rabbit, 5 mg/kg
Protocol: as §3, §4, §5

BALB/c mice = experiment: Acute toxicity in mice, single injection; format: in vivo
Protocol: (§1) The study was conducted in 82 BALB/c mice (both males and females, body weight 18-24 g) obtained from the animal facility of the Scientific Center for Biomedical Technologies of the Federal Medico-Biological Agency of the Russian Federation (SCBMT). The animals were certified and otherwise healthy. The animals were kept in T-3 cages (5-10 animals per cage) with artificial 12 hrs light-dark cycles and 16× per hour forced air ventilation, temperature of 20-22° C. and 50-65% humidity on wood chips sterilized by hot air. The animals had free access to drinking water and PK-120-1 mouse cubes (GOST P50258-92; Laboratorsnab LLC, Russia).
(§2) PIK2 and PIK7 peptides were dissolved in water and administered to mice as a single intraperitoneal injection. The animals were followed for 14 days after peptide injections. An increasing dosage scheme was applied where each tested dose surpassed the previous dose by 50%. The lowest dose of the active substance was determined that caused animal death.

[5] = Acute toxicity in mice, single injection; format: in vivo; conditions: mouse, in vivo
Protocol: as §1, §2

lung edema in rats = conditions: cited from earlier work
[6] = biological target: smooth-muscle myosin light-chain kinase; conditions: Hunt et al., 1989; cited from earlier work
[7] = Peptide half-lives in human plasma in vitro (1H-NMR spectroscopy); format: in vitro ADME; conditions: human, plasma, 1H-NMR, 37° C., peptide 3 mg/ml; read-out: T1/2, half-life in human plasma in vitro
Protocol: Whole blood (100 mL) was collected from healthy donors to 50-mL tubes containing 5 mL of a preservative (130 mM citrate in phosphate buffered saline (PBS), pH 7.4). The blood was incubated for 15-20 min at room temperature followed by centrifugation at 1500 g for 15 min at 18° C. The supernatants were transferred to clear tubes and centrifuged as above. Dry NaBr was added to the plasma (280 mg per 1 mL of plasma). After dissolution of NaBr, the plasma (approx. 30 mL) was transferred to centrifuge tubes (Type 45Ti rotor, Beckman, USA) and layered with 20 mL of a solution (specific mass of […]), which was prepared as follows—11.42 g of NaCl and 100 mg of ethylenediaminetetraacetic acid (EDTA) were dissolved in distilled water in a final volume of 1 L (pH 7.4) and 281.44 g of NaBr was added. The plasma was centrifuged at 40,000 rpm for 48 hrs. The upper dark-yellow fraction containing lipoproteins and the colorless buffer fraction were discarded leaving approx. 1-cm high buffer above the apparent plasma border. Portions of plasma obtained from one donor were pooled and dialyzed for 36 hrs against 4 L of PSB free of Ca^2+ and Mg^2+(MP Biomedicals, USA) in dialysis bags with 12-14 kDa pore sizes. The dialysis procedure was repeated twice with fresh buffer changed every 24 hrs. After the dialysis, the plasma was centrifuged at 25,000 rpm (Type 45Ti rotor, Beckman, USA) for 15 min at 4° C. The supernatant fraction was collected and lyophilized. The dry matter was dissolved in D2O in a final volume equal to the plasma volume before NaBr was added, lyophilized again, dissolved in the same volume of D2O, and stored in 1-mL aliquots at −20° C. before use.
^1H-NMR spectroscopy was employed to analyze relative degradation of PIK7 (the claimed peptide) and MLC11-19 (the structural analogue) in human plasma. ^1H-NMR spectroscopy allows simultaneous direct monitoring the amounts of original full-length peptide and its fragments during the course of enzymatic hydrolysis (Isakova et al., 1986). Stability of a peptide, its degradation pathway(s) and a half-life estimate are available from a comparison of spectra obtained at different time points after the addition of a peptide to plasma. ^1H-NMR spectra were obtained using a WM-500 spectrometer (Bruker, Germany) at 37° C. Chemical shifts in ^1H-NMR spectra were measured relative to an internal standard (2,2-dimethyl-2-silapentane-5-sulfonate sodium salt). The signals were referenced by the double-resonance method. The resonances from peptide protons were identified by the differential spectroscopy method, i.e. the spectrum of blood plasma was subtracted from each spectrum obtained in the presence of peptide of interest. Peptide concentrations were 3 mg/ml.
These indicate the peptide N-terminus degradation. […] Therefore, the claimed peptide has an increased life-span in plasma that allows for long-lasting maintenance of its effective concentrations necessary to decrease the endothelial hyperpermeability under emergency conditions. Moreover, an increased life-time allows attaining the desired therapeutic effect with lower (as compared to homologues) peptide concentrations.

[8] = tested on: MLC phosphorylation in neutrophils; conditions: Chilcoat et al., 2008; cited from earlier work
MLCK = MLCK (Homo sapiens, UniProt Q15746); conditions: in vitro; Sekridova et al., 2010 / RU 2402565; cited from earlier work

Compound: CN[C@@H](CCCNC(=N)N)C(=O)N[C@@H](CCCCN)C(=O)N[C@@H](CCCCN)C(=O)N[C@@H](Cc1ccc(O)cc1)C(=O)N[C@@H](CCCCN)C(=O)N[C@@H](Cc1ccc(O)cc1)C(=O)N[C@@H](CCCNC(=N)N)C(=O)N[C@H](CCCNC(=N)N)C(=O)N[C@@H](CCCCN)C(N)=O [PIK2, H—(N—Me)-Arg^1-Lys-Lys-Tyr-Lys-Tyr-Arg^7-D-Arg^8-Lys-NH2] (H-[NMeR]KKYKYR[dR]K-NH2)
T1/2, half-life in human plasma in vitro ([1]; Khapchaev et al., 2016): >540 min | stability, fold higher as compared to PIK1 ([1]; RU 2493164): 4 fold | LD50 [2]: ≤ 5 mg/kg | effect on thrombin-induced FITC-dextran hyperpermeability [3]: completely abolished the FITC-dextran hyperpermeability; also recorded: effectively abolished FITC-dextran hyperpermeability | mortality (Chinchilla rabbits; group of 4): two rabbits died on the 7th and 10th minute | clinical signs after injection (Chinchilla rabbits; second minute after injection): irregular breathing, shortness of breath, muscular stiffness, prone position with straighten extremities | effect on thrombin-mediated endothelial hyperpermeability in vitro ([4]; peptide 20 μM): completely abolished the thrombin-mediated endothelial hyperpermeability | LD50 at 24 h (in vivo): 5 mg/kg | lowest dose of the active substance that caused animal death (BALB/c mice; BALB/c mice, single intraperitoneal injection, followed 14 days): 27 mg/kg | signs after a toxic dose (BALB/c mice; mice, single intraperitoneal injection of a toxic dose): movement retardation and death within the following 24 hrs | LD50 at 14 days ([5]; both sexes, BALB/c, intraperitoneal, mice, Table 3): 18 mg/kg | LD50 ([5]; after single intravenous injection (as printed in b7), read-out: LD50 in mice): 18 mg/kg | effect on endothelial hyperpermeability response and lung edema (lung edema in rats): abrogation of the endothelial hyperpermeability response and lung edema in rats

Compound: H-D-Lys-Lys-Arg-Ala-Ala-Arg-NH2 (H-[dK]KRAAR-NH2; SMILES C[C@H](NC(=O)[C@H](C)NC(=O)[C@H](CCCNC(=N)N)NC(=O)[C@H](CCCCN)NC(=O)[C@H](N)CCCCN)C(=O)N[C@@H](CCCNC(=N)N)C(N)=O) [RLC 11-16 hexapeptide with N-terminal L-Lys substituted with D-Lys]
IC50 [6]: 180 µM

half-life [7]: 32 min
Compound: H-KKRAARATS-NH2 [MLC11-19, H-Lys-Lys-Arg-Ala-Ala-Arg-Ala-Thr-Ser-NH2]
effect on thrombin-induced FITC-dextran hyperpermeability [3]: completely abolished the FITC-dextran hyperpermeability; also recorded: effectively abolished FITC-dextran hyperpermeability | effect on MLC phosphorylation in neutrophils [8]: decreases MLC phosphorylation in neutrophils

Compound: H-L-Lys-Lys-Arg-Ala-Ala-Arg-NH2 (H-KKRAAR-NH2)
IC50 [6]: 22 µM

Compound: H-MeArg^1-Lys-Lys-Tyr-Lys-Tyr-Arg-Arg-Lys-NH2 (H-[NMeR]KKYKYRRK-NH2) [PIK1, L-PIK modified at the N-terminal amino acid]
half-life in human plasma in vitro, fold higher as compared to L-PIK ([1]; RU 2402565): ~3 fold | inhibition of thrombin-mediated endothelial hyperpermeability ([4]; peptide 100 μM): 1.6 fold | inhibitory activity compared to L-PIK (MLCK): comparable to that of L-PIK
